For 86 compounds, melting point results are on record in a melting point compilation (Tetko et al.; mined from patent text by program, amines drawn as free bases though some values may be those of a salt).

Broadly, the melting point is the temperature, or range, at which the solid turns liquid. The compound `Fc1ccc(N2CCN(CCCOc3ccc(-c4nnco4)cc3)CC2)cc1` gave a melting point of 157 to 158 °C.
In the case of `CNC(=O)N(N)CC(C)O` (stereo unspecified) it was 99 to 101 °C; in that of `CN1Cc2c(-c3noc(CNCc4ccccc4)n3)ncn2-c2ccccc2C1=O`, 88 to 92 °C.
For the compound `COc1ccc(CNc2ccc(Cl)cc2C(=O)C(F)(F)F)cc1OC`, the melting point was in the range of 82 to 84 °C.
For `COc1ccc(CN(C)CCOc2ccc(NC(=O)c3cccc4c(=O)c5ccccc5[nH]c34)cc2)cc1`, the melting point was determined as 146 °C.
In the case of `COc1ccc(CC2CCC3NC(=O)C(CO)CC3C2)cc1` (stereo unspecified) it was 193 to 200 °C.
On to `Cc1ccc([N+](=O)[O-])cc1S(=O)(=O)n1nnc2ccccc21`, for which the melting point lay in the range of 169 to 170 °C.
Under `Fc1ccc(-c2nc3ccc(N4CCC(N5CCCC5)CC4)nn3c2-c2ccnc3[nH]ccc23)cc1` stands 261 to 264 °C; under `Cc1[nH]n(C2CCC2)c2nc(-c3ccncc3)nc(=O)c1-2`, 289 to 290 °C.
For `COc1ccc(C(=O)NCc2ccccc2)c2c1oc1ccc(NC(C)=O)cc12`, the melting point is 264 to 265 °C.
`O=C(O)CCCCCOc1cccc2occc12` displayed a melting point of 86 to 87 °C.
The compound `Nc1c(Cl)ncnc1NCc1ccc(CO)o1` came in with a melting point of 137 °C.
On to `COc1ccc(CCN(C)CCCCc2ccc(NC(=O)c3cccc4c(=O)c5cccc(OC)c5[nH]c34)cc2)cc1`, for which the melting point came to 182 °C.
`CC(=O)NC[C@H]1CN(c2ccc(-c3noc(C(F)(F)F)n3)c(F)c2)C(=O)O1` returned a melting point of 192 to 193 °C.
Regarding `Cc1ccc(C(=O)NC(NC(=S)Nc2cccc([N+](=O)[O-])c2)c2ccccc2)cc1` (stereo unspecified), the melting point was in the range of 170 to 172 °C.
`Nc1nc(N)c2c(ccc3c2ccn3Cc2ccc(Cl)cc2Cl)n1`: the melting point lay in the range of 249 to 250 °C.
`Cc1ccc(S(=O)(=O)OCCN(CCOS(=O)(=O)c2ccc(C)cc2)S(=O)(=O)c2ccc(C)cc2)cc1`: the melting point is 85 to 87 °C.
Consider `Cn1nnc2cccc(S(N)(=O)=O)c21`, for which the melting point is 198 to 200 °C.
Regarding `COC(=O)CN(c1cc(OCc2ccccc2)cc2ccc(OC)cc12)S(N)(=O)=O`, the melting point was in the range of 137 to 139 °C.
Compound `C#CC(C)Nc1c(C)cccc1C` (stereo unspecified) gave a melting point of 32 to 33 °C.
As for `CCCSc1nc(-c2ccc(Cl)cc2)c(CCC(=O)O)o1`, the melting point was 128 to 129 °C.
Under `CS(=O)(=O)c1ccc(-c2cccn2-c2ccc(F)c(F)c2)cc1` stands 137 to 139 °C.
`Nc1c(F)cncc1F` showed a melting point of 99 to 101 °C.
Regarding `CCCCCCCCCCCCSCCOc1ccc(CCC(=O)OC)cc1`, the melting point is 48 °C.
In turn, `O=C(Nc1noc2ccccc12)N1CCN(c2nc(-c3ccccc3)co2)CC1` came in with a melting point of 171 to 172 °C.
Compound `N#Cc1ccc(-c2cn(-c3ccc(Br)cc3)c(C(=O)O)c2C(=O)O)cc1` gave a melting point of 217 to 221 °C.
Under `CC(C)(C)C(=O)c1occc1C(=O)O` stands 85 to 89 °C.
In the case of `COC(=O)c1sc(-c2ccc(C#N)cc2)nc1C`, the melting point was in the range of 186 to 187 °C.
`CCCCCCC1(CCn2ccnc2)SCCS1` gave a melting point of 110 to 116 °C.
The compound `Oc1cccnc1CC1(O)CN2CCC1CC2` (stereo unspecified) registered a melting point of 270 to 272 °C.
Compound `COc1ccc(F)cc1C(C)(C)CC(O)(Cn1cc(C)c(=O)c2ccccc21)C(F)(F)F` (stereo unspecified) displayed a melting point greater than 225 °C.
Take `CC(=O)SCC(Cc1ccc(F)cc1F)C(=O)Nc1cccc(C(=O)O)c1` (stereo unspecified): the melting point fell in the range of 164 to 166 °C.
In turn, `CNC(=O)N(C=O)c1cccc(C)c1` had a melting point of 112 to 113 °C.
`COc1ccc(N2CCOC(c3ccc(C(F)(F)F)cc3)C2)c(-c2ccc(N(C)C)cc2)n1` (stereo unspecified) yielded a melting point of 160 to 161 °C.
Compound `C=CCc1cc(CNC)ccc1C#CC1(O)CN2CCC1CC2` (stereo unspecified) displayed a melting point of 80 °C.
In the case of `O=c1oc2cccnc2n1CCCN1CCN(c2cccc(C(F)(F)F)c2)CC1` it was 62 to 63 °C; in that of `CCCn1c(N)cc(=O)n1-c1ccccc1`, 183 to 185 °C; in that of `COc1ccc(S(=O)(=O)N2c3ccc(Br)cc3-c3ccccc3C2C)cc1` (stereo unspecified), 192 to 194 °C.
Under `COC(=O)CCOc1ccc(C=O)cc1` stands 48 to 50 °C.
With `O=C1c2c(O)ccc(O)c2C(=O)c2c(NCCN3CCC(O)C3)ccc(NCCN3CCC(O)C3)c21` (stereo unspecified), the melting point is 197 to 199 °C.
Compound `Cc1ncc(C#N)c(Nc2ccc3[nH]ccc3c2C)c1-c1ccc(OCCCl)cc1` yielded a melting point of 200 to 201 °C.
Under `O=C(OC(c1ccccc1)c1ccccc1)C1=CCC2C1C(=O)C2(Cl)Cl` (stereo unspecified) stands 96 to 97 °C; under `Cc1cc(Oc2c(Cl)cc(C(F)(F)F)cc2Cl)nn1C(=O)NC(C)(C)C`, 116 to 117 °C.
Compound `COc1ccc(C(=O)Nc2ccc(F)cc2)cc1Nc1cccc(C(F)(F)F)c1` had a melting point of 163 to 164 °C.
For the compound `CNC(=O)NCCn1c(-c2ccc(CN3CCOCC3)cc2)csc1=Nc1ccc(F)c(C)c1`, the melting point lay within 142 to 145 °C.
In the case of `O=C1CCC(N2C(=O)c3cccc(NC(=O)COCc4ccccc4)c3C2=O)C(=O)N1` (stereo unspecified) it was 204 to 206 °C; in that of `CC1(C)C=C(c2ccncc2O)c2ccccc2O1`, 228 to 230 °C.
In the case of `C[C@@H]1[C@H]2C(=O)N(Cc3ccccc3)C(=O)[C@H]2[C@@H](c2ccc(Br)cc2)N1C` (racemic) it was 166 to 168 °C; in that of `CC(O)c1ccccc1-c1ccc(C(=O)N2Cc3ccc(C(=O)NCc4cccnc4)n3Cc3ccccc32)cc1` (single isomer, unassigned; (-)), 118 °C.
In the case of `COc1ccc(-c2nc(C)cc(O)n2)cc1` it was 198 to 199 °C; in that of `Nc1ccccc1NC(=O)c1cc2cccc(OCCO)c2o1`, 182 to 183 °C; in that of `CCCCc1nc2cccc(C(=O)OC)c2n1Cc1ccc(-c2ccccc2-c2nnn[nH]2)cc1`, 153 to 155 °C.
As for `CCOC(=O)C=CCn1c(C(=O)c2cc(C)cc(C)c2)c(CC)c(=O)[nH]c1=O`, the melting point lay within 157 to 158 °C.
Turning to `O=C(CN1CCOCC1)N1CCN(Cc2ccc3c(c2)-c2[nH]nc(-c4ccsc4)c2C3)CC1`, the melting point fell in the range of 240 to 242 °C.
On to `CC(=O)C(=NO)c1ccc(OC[Si](C)(C)c2ccc(F)cc2)cc1`, for which the melting point lay in the range of 115 to 117 °C.
Take `CCOCC(O)(COCC)C(Cc1cc(OC)cc(OC)c1)NC(=O)OC(C)(C)C` (stereo unspecified): the melting point lay in the range of 73.5 to 75 °C.
`Cc1ccc(CC(CNC(=O)C(C)c2ccc(NS(C)(=O)=O)c(F)c2)COC(=O)C(C)(C)C)cc1C` (stereo unspecified) came in with a melting point of 46 to 48 °C.
Under `CCCC(NOCC)=C1C(=O)CC(C2=C(C)CCCC2(C)C)C(C(=O)OC)C1=O` (stereo unspecified) stands 70 °C; under `COC(=O)C1Cc2c(cccc2-c2ccccc2)CN1` (stereo unspecified), 149 to 150 °C.
Under `O=C1CC(NC(=O)C2CCCN3C(=O)CCC(NC(=O)c4ccccc4)C(=O)N23)C(OCCc2ccccc2)O1` (stereo unspecified) stands 101 °C.
Under `CC(CCC(=O)O)CC(C)CC(C)C(=O)C=C(O)C(C)CC(C)CC=CC(C)C(O)C(C)C(O)CC1CCC(C)(C2CCC(C)(C(C)O)O2)O1` (stereo unspecified) stands 203 °C; under `CCC(Oc1ccccc1Br)C(=O)OC1CC(O)C=C2C=CC(C)C(CCC3CC(O)CC(=O)O3)C21` (mixture of isomers), 160 to 162 °C; under `COC(=O)CN1C(=S)CN=C(c2ccccc2Cl)c2ccccc21`, 183 to 184 °C.
`CN(C)S(=O)(=O)c1ccc(NC(=O)C2(C)CC2)cc1C(F)(F)F` displayed a melting point of 153 to 156 °C.
Take `CN(C)c1ccc(-c2ccccc2C(=O)O)nc1`: the melting point was 234 to 236 °C.
In the case of `CCCCS(=O)(=O)c1ccc(CCc2nccn3c(CC#N)ccc23)cc1` it was 188 to 190 °C; in that of `COc1ccc(C2CC(=O)N(c3c(C)c(C)c4c(c3C)[C@@H](c3ccc(C)cc3)C(C)(C)O4)C(=O)C2)cc1`, 207 to 209 °C.
Take `CC(C)(C)OC(=O)C[C@H](NC(=O)CNC(=O)c1csc(NC(=O)NCc2ccccc2)n1)C(=O)NCc1ccccc1`: the melting point is 123 °C.
Turning to `CC(=O)CCCC(=O)NC(CC(=O)C(=O)C(C)(Cc1c[nH]c2ccccc12)NC(=O)OC1C2CC3CC(C2)CC1C3)c1ccccc1` (stereo unspecified), the melting point fell in the range of 69 to 71 °C.
Take `CN1C(=O)CN=C(c2ccccc2Cl)c2cc([N+](=O)[O-])ccc21`: the melting point amounted to 220 °C.
Compound `O=C(NCC12CC3CC(CC(C3)C1)C2)c1cc(F)ccc1Br` came in with a melting point of 143 to 144 °C.
On to `CC(C)n1nc(-c2sc(C(=O)N3CCOCC3)nc2-c2ccccc2)ccc1=O`, for which the melting point turned out to be 162 °C.
The compound `C#Cc1cc(Nc2ncnc3cnc(NCc4ccc(OC)cc4)cc23)ccc1Cl` yielded a melting point of 201 to 203 °C.
Under `CN(C)Cc1cc(C(=O)c2sccc2Cl)cc(C(C)(C)C)c1O` stands 131 to 132 °C; under `Cc1ncccc1Oc1ccc(NC(=O)C=Cc2ccccc2Cl)cn1`, 187 to 189 °C.
For the compound `OC(COc1ccccc1Br)C(Cl)(Cl)Cl` (stereo unspecified), the melting point lay in the range of 88 to 90 °C.
Compound `O=C(c1ccc2c(c1)OCCO2)c1ccc2nc(Cl)nc(-c3cccc(Cl)c3)c2c1` gave a melting point of 198 °C.
Under `COC(=O)c1ccc(Cl)cn1` stands 83 to 86 °C; under `Cc1c(F)c(N2CCC(N)C2)c(F)c2c1c(=O)c(C(=O)O)cn2C1CC1` (stereo unspecified), greater than 300 °C; under `Cc1cc(-c2nc3cccnn3c2-c2ccnc(NC(=O)NC3CCC(O)CC3)c2)ccc1F` (stereo unspecified), 218 to 220 °C.
As for `COC(=O)c1ccc2c(c1)SCCCC2NC(=O)OCc1ccccc1` (stereo unspecified), the melting point lay within 132 to 134 °C.
For `CNC(=O)N(O)C(C)c1ccc(F)cc1` (stereo unspecified), the melting point was in the range of 130 to 133 °C.
Consider `CS(=O)(=O)c1ccc(C2=C(c3ccc(CO)cc3)CCC2)cc1`, for which the melting point lay in the range of 114 to 115 °C.
In the case of `COc1ccc(-c2coc3c(C)c(OCC4CO4)ccc3c2=O)cc1OC` (stereo unspecified) it was 214 °C; in that of `CCOC(=O)c1cnc2c(OC)csc2c1Cl`, 135 to 137 °C.
In the case of `CCCCc1ncc(-c2cccc(C(=O)O)c2)n1Cc1ccccc1Cl` it was 200 to 202 °C.
